Reference: ChEMBL document CHEMBL5375952, “Discovery of Novel 8-Hydroxyquinoline Derivatives with Potent In Vitro and In Vivo Antifungal Activity” (J Med Chem, 2023)

Experiments:
[1] = Antifungal activity against Cryptococcus gattii SCZ20024 assessed as fungal growth inhibition incubated for 48 hrs by broth microdilution method; assay type: functional, Cryptococcus gattii VGI
[2] = Antifungal activity against Cryptococcus gattii SCZ20031 assessed as fungal growth inhibition incubated for 48 hrs by broth microdilution method; assay type: functional, Cryptococcus gattii VGI
[3] = Antifungal activity against Cryptococcus gattii WM179 assessed as fungal growth inhibition incubated for 48 hrs by broth microdilution method; assay type: functional, Cryptococcus gattii VGI
Pichia kudriavzevii [4] = assay: Antifungal activity against Candida krusei 472 assessed as fungal growth inhibition incubated for 48 hrs by broth microdilution method; assay type: functional
Pichia kudriavzevii [5] = assay: Antifungal activity against Candida krusei 68 assessed as fungal growth inhibition incubated for 48 hrs by broth microdilution method; assay type: functional
[Candida] auris [6] = Antifungal activity against Candida auris 888 assessed as fungal growth inhibition incubated for 48 hrs by broth microdilution method; assay type: functional; conditions: Candidozyma auris
Candida albicans [7] = assay: Antifungal activity against Candida albicans SC5314 assessed as fungal growth inhibition incubated for 48 hrs by broth microdilution method; assay type: functional
Aspergillus fumigatus [8] = assay: Antifungal activity against Aspergillus fumigatus 7544 assessed as fungal growth inhibition incubated for 48 hrs by broth microdilution method; assay type: functional
Candida tropicalis [9] = assay: Antifungal activity against Candida tropicalis 182 assessed as fungal growth inhibition incubated for 48 hrs by broth microdilution method; assay type: functional
Candida tropicalis [10] = assay: Antifungal activity against Candida tropicalis 177 assessed as fungal growth inhibition incubated for 48 hrs by broth microdilution method; assay type: functional
Candida tropicalis [11] = assay: Antifungal activity against Candida tropicalis 178 assessed as fungal growth inhibition incubated for 48 hrs by broth microdilution method; assay type: functional
Candida albicans [12] = assay: Antifungal activity against Candida albicans 338 assessed as fungal growth inhibition incubated for 48 hrs by broth microdilution method; assay type: functional
Candida tropicalis [13] = assay: Antifungal activity against Candida tropicalis 176 assessed as fungal growth inhibition incubated for 48 hrs by broth microdilution method; assay type: functional
Nakaseomyces glabratus [14] = assay: Antifungal activity against Candida glabrata 222 assessed as fungal growth inhibition incubated for 48 hrs by broth microdilution method; assay type: functional
Cryptococcus neoformans [15] = assay: Antifungal activity against Cryptococcus neoformans HN15 assessed as fungal growth inhibition incubated for 48 hrs by broth microdilution method; assay type: functional
Candida albicans [16] = assay: Antifungal activity against Candida albicans 25 assessed as fungal growth inhibition incubated for 48 hrs by broth microdilution method; assay type: functional
[Candida] auris [17] = Antifungal activity against Candida auris 276 assessed as fungal growth inhibition incubated for 48 hrs by broth microdilution method; assay type: functional; conditions: Candidozyma auris
Cryptococcus neoformans [18] = assay: Antifungal activity against Cryptococcus neoformans 443 assessed as fungal growth inhibition incubated for 48 hrs by broth microdilution method; assay type: functional
Candida albicans [19] = assay: Antifungal activity against Candida albicans 21 assessed as fungal growth inhibition incubated for 48 hrs by broth microdilution method; assay type: functional
Cryptococcus neoformans [20] = assay: Antifungal activity against Cryptococcus neoformans 445 assessed as fungal growth inhibition incubated for 48 hrs by broth microdilution method; assay type: functional
[21] = Cytotoxicity against human Caco-2 cells assessed as cell growth inhibition incubated for 24 hrs by CCK8 assay; assay type: toxicity, cell-based
Candida parapsilosis [22] = assay: Antifungal activity against Candida parapsilosis 107 assessed as fungal growth inhibition incubated for 48 hrs by broth microdilution method; assay type: functional; conditions: Lodderomyces parapsilosis
Pichia kudriavzevii [23] = assay: Antifungal activity against Candida krusei 471 assessed as fungal growth inhibition incubated for 48 hrs by broth microdilution method; assay type: functional
Cryptococcus neoformans [24] = assay: Antifungal activity against Cryptococcus neoformans H99 assessed as fungal growth inhibition incubated for 48 hrs by broth microdilution method; assay type: functional
[Candida] auris [25] = Antifungal activity against Candida auris 887 assessed as fungal growth inhibition incubated for 48 hrs by broth microdilution method; assay type: functional; conditions: Candidozyma auris
Cryptococcus neoformans [26] = assay: Antifungal activity against Cryptococcus neoformans HN17 assessed as fungal growth inhibition incubated for 48 hrs by broth microdilution method; assay type: functional
Cryptococcus neoformans [27] = assay: Antifungal activity against Cryptococcus neoformans BJ3 assessed as fungal growth inhibition incubated for 48 hrs by broth microdilution method; assay type: functional
Cryptococcus neoformans [28] = assay: Antifungal activity against Cryptococcus neoformans HN2-40 assessed as fungal growth inhibition incubated for 48 hrs by broth microdilution method; assay type: functional
Candida albicans [29] = assay: Antifungal activity against Candida albicans 22 assessed as fungal growth inhibition incubated for 48 hrs by broth microdilution method; assay type: functional
[30] = Antifungal activity against Cryptococcus gattii WM178 assessed as fungal growth inhibition incubated for 48 hrs by broth microdilution method; assay type: functional, Cryptococcus gattii VGI
Cryptococcus neoformans [31] = assay: Antifungal activity against Cryptococcus neoformans 56992 assessed as fungal growth inhibition incubated for 48 hrs by broth microdilution method; assay type: functional
Nakaseomyces glabratus [32] = assay: Antifungal activity against Candida glabrata 205 assessed as fungal growth inhibition incubated for 48 hrs by broth microdilution method; assay type: functional
Nakaseomyces glabratus [33] = assay: Antifungal activity against Candida glabrata 201 assessed as fungal growth inhibition incubated for 48 hrs by broth microdilution method; assay type: functional
Candida tropicalis [34] = assay: Antifungal activity against Candida tropicalis 172 assessed as fungal growth inhibition incubated for 48 hrs by broth microdilution method; assay type: functional
Pichia kudriavzevii [35] = assay: Antifungal activity against Candida krusei 69 assessed as fungal growth inhibition incubated for 48 hrs by broth microdilution method; assay type: functional
Candida albicans [36] = assay: Antifungal activity against Candida albicans 337 assessed as fungal growth inhibition incubated for 48 hrs by broth microdilution method; assay type: functional
Cryptococcus neoformans [37] = assay: Antifungal activity against Cryptococcus neoformans HN1 assessed as fungal growth inhibition incubated for 48 hrs by broth microdilution method; assay type: functional
Candida parapsilosis [38] = assay: Antifungal activity against Candida parapsilosis 105 assessed as fungal growth inhibition incubated for 48 hrs by broth microdilution method; assay type: functional; conditions: Lodderomyces parapsilosis
Cryptococcus neoformans [39] = assay: Antifungal activity against Cryptococcus neoformans HN19 assessed as fungal growth inhibition incubated for 48 hrs by broth microdilution method; assay type: functional
Nakaseomyces glabratus [40] = assay: Antifungal activity against Candida glabrata 202 assessed as fungal growth inhibition incubated for 48 hrs by broth microdilution method; assay type: functional
Candida parapsilosis [41] = assay: Antifungal activity against Candida parapsilosis 125 assessed as fungal growth inhibition incubated for 48 hrs by broth microdilution method; assay type: functional; conditions: Lodderomyces parapsilosis
Candida parapsilosis [42] = assay: Antifungal activity against Candida parapsilosis 104 assessed as fungal growth inhibition incubated for 48 hrs by broth microdilution method; assay type: functional; conditions: Lodderomyces parapsilosis
Candida parapsilosis [43] = assay: Antifungal activity against Candida parapsilosis ATCC22019 assessed as fungal growth inhibition incubated for 48 hrs by broth microdilution method; assay type: functional; conditions: Lodderomyces parapsilosis
Aspergillus fumigatus [44] = assay: Antifungal activity against Aspergillus fumigatus A assessed as fungal growth inhibition incubated for 48 hrs by broth microdilution method; assay type: functional
Cryptococcus neoformans [45] = assay: Antifungal activity against Cryptococcus neoformans SH68 assessed as fungal growth inhibition incubated for 48 hrs by broth microdilution method; assay type: functional
Pichia kudriavzevii [46] = assay: Antifungal activity against Candida krusei 474 assessed as fungal growth inhibition incubated for 48 hrs by broth microdilution method; assay type: functional
Candida tropicalis [47] = assay: Antifungal activity against Candida tropicalis 184 assessed as fungal growth inhibition incubated for 48 hrs by broth microdilution method; assay type: functional
[48] = Antifungal activity against Cryptococcus gattii E566 assessed as fungal growth inhibition incubated for 48 hrs by broth microdilution method; assay type: functional, Cryptococcus gattii VGI
Pichia kudriavzevii [49] = assay: Antifungal activity against Candida krusei 477 assessed as fungal growth inhibition incubated for 48 hrs by broth microdilution method; assay type: functional
Nakaseomyces glabratus [50] = assay: Antifungal activity against Candida glabrata 204 assessed as fungal growth inhibition incubated for 48 hrs by broth microdilution method; assay type: functional
Cryptococcus neoformans [51] = assay: Antifungal activity against Cryptococcus neoformans HN20 assessed as fungal growth inhibition incubated for 48 hrs by broth microdilution method; assay type: functional
Cryptococcus neoformans [52] = assay: Antifungal activity against Cryptococcus neoformans HN2 assessed as fungal growth inhibition incubated for 48 hrs by broth microdilution method; assay type: functional
[Candida] auris [53] = Antifungal activity against Candida auris CBS 12372 assessed as fungal growth inhibition incubated for 48 hrs by broth microdilution method; assay type: functional; conditions: Candidozyma auris

Oc1c(I)cc(Cl)c2cccnc12 [CLIOQUINOL]
0.5 µg/mL: MIC (Candida parapsilosis [22]) | MIC ([Candida] auris [25]) | MIC (Candida parapsilosis [43])
0.032 µg/mL: MIC (Candida tropicalis [13])
0.063 µg/mL: MIC ([Candida] auris [17]) | MIC (Cryptococcus neoformans [20]) | MIC (Cryptococcus neoformans [27]) | MIC (Cryptococcus neoformans [28]) | MIC (Cryptococcus neoformans [31]) | MIC (Cryptococcus neoformans [39]) | MIC (Cryptococcus neoformans [51]) | MIC ([Candida] auris [53])
0.25 µg/mL: MIC (Pichia kudriavzevii [5]) | MIC ([Candida] auris [6]) | MIC (Aspergillus fumigatus [8]) | MIC (Nakaseomyces glabratus [14]) | MIC (Pichia kudriavzevii [23]) | MIC (Nakaseomyces glabratus [32]) | MIC (Candida parapsilosis [38]) | MIC (Candida parapsilosis [41]) | MIC (Aspergillus fumigatus [44]) | MIC (Pichia kudriavzevii [46]) | MIC (Pichia kudriavzevii [49])
0.031 µg/mL: MIC [1] | MIC [2] | MIC [3] | MIC [30] | MIC [48]
0.125 µg/mL: MIC (Pichia kudriavzevii [4]) | MIC (Candida albicans [7]) | MIC (Candida tropicalis [9]) | MIC (Candida tropicalis [10]) | MIC (Candida tropicalis [11]) | MIC (Candida albicans [12]) | MIC (Cryptococcus neoformans [15]) | MIC (Candida albicans [16]) | MIC (Cryptococcus neoformans [18]) | MIC (Candida albicans [19]) | MIC (Cryptococcus neoformans [24]) | MIC (Cryptococcus neoformans [26]) | MIC (Candida albicans [29]) | MIC (Nakaseomyces glabratus [33]) | MIC (Candida tropicalis [34]) | MIC (Pichia kudriavzevii [35]) | MIC (Candida albicans [36]) | MIC (Cryptococcus neoformans [37]) | MIC (Nakaseomyces glabratus [40]) | MIC (Candida parapsilosis [42]) | MIC (Cryptococcus neoformans [45]) | MIC (Candida tropicalis [47]) | MIC (Nakaseomyces glabratus [50]) | MIC (Cryptococcus neoformans [52])
19.3 µg/mL: IC50 at 24 h [21]
